Experimental data taken from patent publication US8658664B2 (The Board of Regents of the University of Texas System, priority 2008, dated 2014).
Counter-ions that a name gives are not always drawn.

Experiments:
[1] = system: pancreatic cancer cell line ASPC-1; assay: Orthotopic mouse model for pancreatic cancer metastasis; format: in vivo; settings: ASPC-1-GFP injected into pancreas of nude mice; 20 mice per group; saline control 60%
Procedure: An orthotopic mouse model for pancreatic cancer metastasis was established to test the effect of Cyc-T on pancreatic cancer. Green flourescent protein (GFP) was expressed in pancreatic cancer cell line ASPC-1, and then injected into pancreas of nude mice.
The effect of cyc-T was tested in the mouse model for pancreatic cancer metastasis described supra.

[2] = system: hedgehog signaling; assay: Motor neuron differentiation and embryonic body formation from embryonic stem cells; format: cell-based
From the text: To test stem cell functions, motor neuron differentiation experiments were used. First embryonic stem cells were used to form stem cell sphere (embryonic bodies, EB). In the presence of retinoic acid (RA) and sonic hedgehog or SMO agonist purmorphamine (AG), several types of neurons can be differentiated. These neurons can be distinguished by distinct markers. Hb9 is regarded as a marker for motor neuron (FIG. 6A).

[3] = system: basal cell carcinomas (BCC); assay: Skin tumor shrinkage in mouse BCC models, topical application; format: in vivo; settings: topical application for 21 days; K14 Ptch1 knockout and K14 SmoM2-YFP mice
Procedure: Quantitative analysis was performed to calculate the percentage of tumor area in a given tissue area. Eight areas were used to measure the average value from each group, which was compared for the efficacy of the drugs.

Q: CC1=C2CC3C(CC=C4CC(O)CCC43C)C2CCC12OC1CC(C)CNC1C2C (stereo not shown) [Cyclopamine tartrate] was tested. Which “frequency of tumor metastasis” value [1] did it give?
A: 32%

Q: What about the “inhibition of hedgehog signaling / motor neuron differentiation (Hb9 marker)” value ([2]; embryonic bodies with retinoic acid and sonic hedgehog or purmorphamine, compared with KAAD-cyclopamine) of the same compound?
A: as effective as KAAD-cyclopamine

Q: And the “number and size of embryonic bodies (EBs)” value ([2]; embryonic stem cell spheres, DAPI fluorescent microscopy)?
A: reduces the number and the size of EBs

Q: And the “efficacy on hedgehog signaling-mediated skin tumors (percentage of tumor area in tissue area)” value [3]?
A: very effective inhibitor for hedgehog signaling-mediated tumors
